# System: NIT-1 cells
# Assay: STZ-induced apoptosis in NIT-1 cells, cell viability by MTT assay
# Type: cell-based, mice
# Conditions: STZ 8 μM alone, FIG. 1
# Procedure: Cells. Cell line used in the present study was pancreatic beta cell line NIT-1 ([…], BCRC). NIT-1 cells were cultured and maintained in Ham's F12K medium with 2 mM L-glutamine adjusted to contain 1.5 g/L sodium bicarbonate, 90%; heat-inactivated dialyzed fetal bovine serum(FBS), 10%; 100 units/mL penicillin G, 100 units/mL streptomycin (pH 7.4) and 1% non-essential amino acids(NEAA). were maintained in humidified environment comprising 5%CO2/95% air at 37° C.
# NIT-1 cells were seeded into 96-well plates at a density of 1.0×10^5 cells per well and cultured in their normal growth media overnight. Next day, cells were incubated in the presence of streptozotocin (STZ) (8 μM) and the polysaccharide mixture (abbreviated as “FPA”, 100 μg/mL) of the present invention for 24 hrs, then cell viability was determined by MTT assay.
# NIT-1 cells are pancreatic beta cell lines established from transgenic mice spontaneously developing beta-cell adenoma, thus, NIT-1 cells are suitable for hyperglycemia study for they are not responsive to glucose in the physiological range. […] Accordingly, the protective effect of the present polysaccharide mixture of example 1 on STZ-treated NIT-1 cells was evaluated by MTT assay. Result is illustrated in FIG. 1.
compound,measurement,value
"CN(N=O)C(=O)N[C@H]1C(O)O[C@H](CO)[C@@H](O)[C@@H]1O (mixture of isomers) [STZ, streptozotocin]",portion of NIT-1 cells died,about 60%
